Measurements published in patent publication US9456972B2, “Niacin-peptide having skin whitening activity and use for same” (priority 2011, dated 2016).
Square brackets hold non-standard residues; d marks the D form. Ends that are not written are not given here. Peptide text beside a SMILES is read from it. * marks the point of attachment. Nicotinoyl = O=C(c1cccnc1)*; βAla = NCCC(=O)O

How the values were obtained:
B16F10 melanocytes = assay: Screening of niacin-peptides: inhibition of melanogenesis against α-MSH; assay type: cell-based, mouse; set-up: key: relative to absorbance (490 nm) of α-MSH-only positive control; conditions: 20 μg/ml α-MSH plus 10 ng/ml peptide, 3 days, UV 490 nm, α-MSH-only positive control as standard
Experimental: The present inventors screened skin whitening peptides by measuring decrease in melanogenesis using the niacin-peptide libraries prepared in Example 1. B16F10 melanocytes (the Korean Cell Line Bank) were incubated with α-MSH to induce melanogenesis and the inhibition of melanogenesis by the peptide libraries was analyzed. The mouse melanocytes were cultured at 37° C. in 5% CO2 atmosphere in DMEM supplemented with 10% FBS. The cells were seeded in each well of a 96-well plate (5×10^4 cells/well) and their attachment was verified. Afterwards, the control group was incubated with only solvent, the positive control group was incubated with 20 μg/ml of α-MSH and the other wells was incubated with 20 μg/ml of α-MSH and 10 ng/ml of peptides for 3 days.
The inhibition rates of melanogenesis by treatment of each peptide prepared in Example 1 were measured at UV 490 nm. The inhibition rates were calculated using the absorbance value of the positive control group incubated with only α-MSH as a standard, which are summarized in Table 1. The candidate peptides analyzed to show excellent screening results were selected and synthesized in a 100-μmole scale for further experiments. FIG. 1 represents the screening result of niacin-peptides.

B16F10 cells = assay: Skin whitening effect: melanogenesis at various concentrations in α-MSH-treated melanocytes; assay type: cell-based, mouse; conditions: 1, 10, 100 and 250 μg/ml, 3 days
Experimental: Cells were treated with various concentrations of niacin-peptide, followed by measuring activity in inhibition of melanogenesis. The mouse melanocytes were cultured at 37° C. in 5% CO2 atmosphere in DMEM supplemented with 10% FBS. The cells were seeded in each well of a 24-well plate (1×10^5 cells/well) and their attachment was verified. Cells were incubated with each test group for 3 days: (a) only solvent as negative control; (b) 20 μg/ml α-MSH as a positive control; (c) 20 μg/ml α-MSH plus 1, 10, 100 and 250 μg/ml niacin-peptides (NA-PG, NAPS, NA-ET and NA-VS); (d) 1, 10, 100 and 250 μg/ml arbutin; and (e) 1, 10, 100 and 250 μg/ml AA2G.
FIG. 5 is images of melanocytes representing treatment effects of NA-PS and PS peptides on melanogenesis decrease rate in a concentration dependent manner.
For analyzing the release amount of melanin, the absorbance values of the culture medium were measured at 490 nm.

[1] = tested on: melanin movement from melanocytes to keratinocytes; conditions: cited from earlier work
[2] = Stability of niacin-peptides in human serum; assay type: in vitro ADME; conditions: 100 μg/ml, incubated with human serum for 10 hr
Experimental: The prepared solutions were introduced into glass vials and kept to stand at 40° C. for 7, 14, 21, 28, 35, 42 and 60 days. […] The present inventors tested stability of niacin-peptides in human serum. Niacin-peptides (nicotinoyl-PS, 100 μg/ml) or niacin-unlinked peptide (PS, 100 μg/ml) was incubated with human serum for 10 hr, and the amount of residual peptides was measured at every hour. According to the result of the comparative stability experiment, when nicotinoyl-PS (nicotinoyl group linked to the N-terminal of PS peptide) was incubated with the serum for 10 hr, the stability of niacin-peptides was 20% higher than the control group (niacin-unlinked peptide).

Row | Compound | Screening value: Inhibition of melanogenesis against α-MSH (B16F10 melanocytes) | further results
1 | nicotinoyl-GQPR (Nicotinoyl-GQPR) | 0.83 | –
2 | nicotinoyl-RKDVY (Nicotinoyl-RKDVY) | 0.87 | –
3 | nicotinoyl-GPQGPQ (Nicotinoyl-GPQGPQ) | 0.88 | –
4 | OC[C@H]1O[C@@H](Oc2ccc(O)cc2)[C@H](O)[C@@H](O)[C@@H]1O [arbutin] | – | cell number compared with the α-MSH treated group (B16F10 cells): significantly decreased
5 | nicotinoyl-PLG-NH2 (Nicotinoyl-Pro-Leu-Gly-NH2; SMILES CC(C)C[C@H](NC(=O)[C@@H]1CCCN1C(=O)c1cccnc1)C(=O)NCC(N)=O) | 0.92 | –
6 | nicotinoyl-YGGFM (Nicotinoyl-YGGFM) | 0.81 | –
7 | nicotinoyl-NP | 0.8 | –
8 | nicotinoyl-GHR (Nicotinoyl-Gly-His-Arg) | 0.75 | –
9 | nicotinoyl-VPAA (Nicotinoyl-VPAA) | 0.85 | –
10 | nicotinoyl-KAKA (Nicotinoyl-KAKA) | 0.87 | –
11 | nicotinoyl-KTTKS (Nicotinoyl-KTTKS) | 0.92 | –
12 | NC(=O)c1cccnc1 [Niacinamide] | – | decrease of melanin movement from melanocytes to keratinocytes [1]: 68%
13 | nicotinoyl-EEMQRR-NH2 (Nicotinoyl-EEMQRR-NH2; SMILES CSCC[C@H](NC(=O)[C@H](CCC(=O)O)NC(=O)[C@H](CCC(=O)O)NC(=O)c1cccnc1)C(=O)N[C@@H](CCC(N)=O)C(=O)N[C@@H](CCCNC(=N)N)C(=O)N[C@@H](CCCNC(=N)N)C(N)=O) | 0.86 | –
14 | nicotinoyl-KRGDR (Nicotinoyl-KRGDR) | 0.92 | –
15 | nicotinoyl-VEPIPY (Nicotinoyl-VEPIPY) | 0.81 | –
16 | nicotinoyl-VGVAPG (Nicotinoyl-VGVAPG) | 0.95 | –
17 | nicotinoyl-YPFF-NH2 (Nicotinoyl-YPFF-NH2; SMILES NC(=O)[C@H](Cc1ccccc1)NC(=O)[C@H](Cc1ccccc1)NC(=O)[C@@H]1CCCN1C(=O)[C@H](Cc1ccc(O)cc1)NC(=O)c1cccnc1) | 0.85 | –
18 | nicotinoyl-DKYV | 0.87 | –
19 | nicotinoyl-GEPG (Nicotinoyl-GEPG) | 0.96 | –

Row | Compound | Screening value: Inhibition of melanogenesis against α-MSH (B16F10 melanocytes) | further results
20 | nicotinoyl-KVK (Nicotinoyl-Lys-Val-Lys) | 1.01 | –
21 | nicotinoyl-GPRPA-NH2 (Nicotinoyl-GPRPA-NH2; SMILES C[C@H](NC(=O)[C@@H]1CCCN1C(=O)[C@H](CCCNC(=N)N)NC(=O)[C@@H]1CCCN1C(=O)CNC(=O)c1cccnc1)C(N)=O) | 0.7 | –
22 | nicotinoyl-ISELGW (Nicotinoyl-ISELGW) | 0.64 | –
23 | nicotinoyl-YGY (Nicotinoyl-Tyr-Gly-Tyr) | 0.69 | –
24 | nicotinoyl-GRKG (Nicotinoyl-GRKG) | 0.93 | –
25 | nicotinoyl-KRGKP (Nicotinoyl-KRGKP) | 0.84 | –
26 | nicotinoyl-SIKVAV (Nicotinoyl-SIKVAV) | 0.72 | –
27 | nicotinoyl-TYR (Nicotinoyl-Thr-Tyr-Arg) | 0.72 | –
28 | nicotinoyl-AHK (Nicotinoyl-Ala-His-Lys) | 0.8 | –
29 | O=C(O)[C@H](CO)NC(=O)[C@@H]1CCCN1C(=O)c1cccnc1 [nicotinoyl-PS] (Nicotinoyl-Pro-Ser-OH) | – | stability higher than the control group (niacin-unlinked peptide PS) [2]: 20%
30 | nicotinoyl-YGGFL | 0.78 | –
31 | nicotinoyl-beta-AHSH (Nicotinoyl-[βAla]HSH) | 0.82 | –
32 | nicotinoyl-KLAKK (Nicotinoyl-KLAKK) | 0.96 | –
33 | nicotinoyl-SSNA (Nicotinoyl-SSNA) | 0.71 | –
34 | nicotinoyl-YGYTGA (Nicotinoyl-YGYTGA) | 0.95 | –
35 | nicotinoyl-KVARP (Nicotinoyl-KVARP) | 0.96 | –
36 | nicotinoyl-YT | 0.75 | –
37 | nicotinoyl-FWY (Nicotinoyl-Phe-Trp-Tyr) | 0.61 | –
38 | nicotinoyl-GPHyp | 0.89 | –
